Measured values as given in publication PMC11783427, “Enhanced dynamic coupling in a nuclear receptor underlies ligand activity” (The Journal of Biological Chemistry, 2024).
Where two headings read alike, the source gives them in different places.

Assays:
FXR [1] = conditions: cited from earlier work
FXR [2] = biological target: T1, FXR (Homo sapiens, UniProt Q96RI1); experiment: Dual-luciferase reporter assay of FXR transcription (IR-1-CON-luc and PLTP-luc) in HeLa cells; assay type: cell-based
T1 construct: Luciferase with FL-FXR and Coregulators; expressed in transfected cells; host or cells: HeLa cells
T1 sequence (Q96RI1 1-476 isoform Q96RI1-1): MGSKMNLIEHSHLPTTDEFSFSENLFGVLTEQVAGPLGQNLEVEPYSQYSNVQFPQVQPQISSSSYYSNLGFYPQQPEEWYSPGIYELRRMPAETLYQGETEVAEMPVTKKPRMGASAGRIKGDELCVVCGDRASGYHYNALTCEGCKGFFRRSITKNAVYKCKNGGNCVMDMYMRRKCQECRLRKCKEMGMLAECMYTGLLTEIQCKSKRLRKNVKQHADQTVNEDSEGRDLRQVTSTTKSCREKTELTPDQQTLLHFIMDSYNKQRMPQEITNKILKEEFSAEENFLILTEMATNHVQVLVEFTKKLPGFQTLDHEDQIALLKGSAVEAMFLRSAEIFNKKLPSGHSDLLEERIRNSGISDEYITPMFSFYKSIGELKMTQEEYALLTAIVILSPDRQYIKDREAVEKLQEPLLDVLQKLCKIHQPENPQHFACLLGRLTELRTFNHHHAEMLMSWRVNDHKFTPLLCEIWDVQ
T1 sequence (P19793 1-462 partner): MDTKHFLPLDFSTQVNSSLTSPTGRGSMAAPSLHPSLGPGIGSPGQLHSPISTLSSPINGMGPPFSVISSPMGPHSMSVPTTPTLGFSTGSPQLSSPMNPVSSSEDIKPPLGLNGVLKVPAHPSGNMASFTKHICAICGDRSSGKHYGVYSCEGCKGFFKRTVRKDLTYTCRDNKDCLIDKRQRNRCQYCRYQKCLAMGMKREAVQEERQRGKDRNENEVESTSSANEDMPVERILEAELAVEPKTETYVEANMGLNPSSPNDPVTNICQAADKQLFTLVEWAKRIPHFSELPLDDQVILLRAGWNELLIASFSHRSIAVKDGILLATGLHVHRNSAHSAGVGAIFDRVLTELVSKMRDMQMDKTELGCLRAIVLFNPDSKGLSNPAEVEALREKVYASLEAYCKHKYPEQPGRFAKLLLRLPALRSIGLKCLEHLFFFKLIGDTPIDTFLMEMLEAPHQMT
Protocol: HeLa cells were obtained from American Type Culture Collection, and the cells were grown in culture in minimum essential medium alpha (Thermo Fisher Scientific) supplemented with 10% FBS and 1% L-glutamine at 37 °C with humidified atmosphere at 5% CO2.
Cells were seeded 10,000 cells/well in a 96-well, clear flat, bottom cell culture plate. Cotransfection was performed with equal amount of 5 ng of each expression plasmids pcDNA3.1-FXR and pcDNA3.1-RXR, along with 50 ng of the pGL4.31-derived plasmids containing the FXRE and 1 ng of renilla luciferase (pRL-CMV). […]
At 24 h after transfection, cells were stimulated with DMSO (final concentration of 0.71%) or test ligands at final concentrations 10 μM or 100 μM, as appropriate. After another 24 h incubation, Firefly luciferase activity and Renilla luciferase activity were measured using the Dual-Glo kit (Promega) using a SpectraMax iD5 plate reader. […]
Data for luciferase assays are presented as the mean ± standard SD of at least three independent replicates. p values were calculated using two-way ANOVA with Dunnett’s multiple comparisons test to access the differences between specific pairs of means. For coregulator mean comparisons, p values were calculated using one-way ANOVA with Sidaks’s multiple comparisons. […]

In the case of `C[C@H](CCC(=O)O)[C@H]1CC[C@H]2[C@@H]3CC[C@@H]4C[C@H](O)CC[C@]4(C)[C@H]3CC[C@]12C` [LCA, lithocholic acid], the “luciferase activity (efficacy of FXR transcriptional activation)” value (FXR [2]; 100 μM ligand, compared with 10 μM OCA, Fig. S1A) is listed as “falls short of 10 μM OCA levels” and the EC50 (FXR [1]; weak agonist of FXR) is listed as […].
In the case of `CC[C@H]1[C@@H](O)[C@@H]2[C@H](CC[C@]3(C)[C@@H]([C@H](C)CCC(=O)O)CC[C@@H]23)[C@@]2(C)CC[C@@H](O)C[C@@H]12` [OCA, obeticholic acid], the “luciferase activity (efficacy of FXR transcriptional activation)” value (FXR [2]; 10 μM ligand, both IR-1-CON-luc and PLTP-luc, compared among OCA, CDCA, LCA) is listed as “highest efficacy”, the EC50 (FXR [1]; FXR) is listed as […] and the “increase in potency over the endogenous agonist CDCA in FXR activation” value (FXR [1]; relative to CDCA) is listed as […].
